{"source": "patent US8192962B2", "about": "“Processes for detecting toxic substances” (Daikin Industries, Ltd., priority 2001, dated 2012)", "test_system": "DNA repair protein genes", "assay": "DNA chip mRNA expression in yeast, DNA repair protein genes (Table 3)", "format": "cell-based, Saccharomyces cerevisiae S288C", "settings": "incubated two hours, concentrations as in the 1st table", "outline": "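S. cerevisiae S288C grown at 25° C. in YPD to log phase, then exposed 2 h to a toxicant at a growth-inhibiting, non-lethal concentration; untreated cells as control. Poly(A) mRNA reverse-transcribed with Cy3-dUTP or Cy5-dUTP, hybridized >12 h at 65° C. to whole-genome yeast DNA chip; value = fluorescence ratio treated/untreated.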", "data": [{"smiles": "C=CC=O", "note": "[(14), acrolein]", "values": [{"measurement": "The level of expressed mRNA in the presence of chemical substance/The level of expressed mRNA in the absence of chemical substance", "setting": "yeast gene YAL015C", "result": 1.6}, {"measurement": "The level of expressed mRNA in the presence of chemical substance/The level of expressed mRNA in the absence of chemical substance", "setting": "yeast gene YAR007C", "result": 1.4}, {"measurement": "The level of expressed mRNA in the presence of chemical substance/The level of expressed mRNA in the absence of chemical substance", "setting": "yeast gene YBL019W", "result": 1.1}, {"measurement": "The level of expressed mRNA in the presence of chemical substance/The level of expressed mRNA in the absence of chemical substance", "setting": "yeast gene YBR073W", "result": 1.0}, {"measurement": "The level of expressed mRNA in the presence of chemical substance/The level of expressed mRNA in the absence of chemical substance", "setting": "yeast gene YBR272C", "result": 1.0}, {"measurement": "The level of expressed mRNA in the presence of chemical substance/The level of expressed mRNA in the absence of chemical substance", "setting": "yeast gene YCR014C", "result": 1.0}, {"measurement": "The level of expressed mRNA in the presence of chemical substance/The level of expressed mRNA in the absence of chemical substance", "setting": "yeast gene YDL017W", "result": 1.3}, {"measurement": "The level of expressed mRNA in the presence of chemical substance/The level of expressed mRNA in the absence of chemical substance", "setting": "yeast gene YDL059C", "result": 4.7}, {"measurement": "The level of expressed mRNA in the presence of chemical substance/The level of expressed mRNA in the absence of chemical substance", "setting": "yeast gene YDL200C", "result": 1.8}, {"measurement": "The level of expressed mRNA in the presence of chemical substance/The level of expressed mRNA in the absence of chemical substance", "setting": "yeast gene YDR054C", "result": 1.1}, {"measurement": "The level of expressed mRNA in the presence of chemical substance/The level of expressed mRNA in the absence of chemical substance", "setting": "yeast gene YDR369C", "result": 0.7}, {"measurement": "The level of expressed mRNA in the presence of chemical substance/The level of expressed mRNA in the absence of chemical substance", "setting": "yeast gene YEL019C", "result": 1.7}, {"measurement": "The level of expressed mRNA in the presence of chemical substance/The level of expressed mRNA in the absence of chemical substance", "setting": "yeast gene YEL037C", "result": 1.0}, {"measurement": "The level of expressed mRNA in the presence of chemical substance/The level of expressed mRNA in the absence of chemical substance", "setting": "yeast gene YER162C", "result": 0.8}, {"measurement": "The level of expressed mRNA in the presence of chemical substance/The level of expressed mRNA in the absence of chemical substance", "setting": "yeast gene YFL014W", "result": 7.3}, {"measurement": "The level of expressed mRNA in the presence of chemical substance/The level of expressed mRNA in the absence of chemical substance", "setting": "yeast gene YGL058W", "result": 1.3}, {"measurement": "The level of expressed mRNA in the presence of chemical substance/The level of expressed mRNA in the absence of chemical substance", "setting": "yeast gene YGL091C", "result": 3.1}, {"measurement": "The level of expressed mRNA in the presence of chemical substance/The level of expressed mRNA in the absence of chemical substance", "setting": "yeast gene YGL127C", "result": 1.0}, {"measurement": "The level of expressed mRNA in the presence of chemical substance/The level of expressed mRNA in the absence of chemical substance", "setting": "yeast gene YGL163C", "result": 1.6}, {"measurement": "The level of expressed mRNA in the presence of chemical substance/The level of expressed mRNA in the absence of chemical substance", "setting": "yeast gene YGL249W", "result": 1.9}, {"measurement": "The level of expressed mRNA in the presence of chemical substance/The level of expressed mRNA in the absence of chemical substance", "setting": "yeast gene YGR180C", "result": 0.9}, {"measurement": "The level of expressed mRNA in the presence of chemical substance/The level of expressed mRNA in the absence of chemical substance", "setting": "yeast gene YGR231C", "result": 2.2}, {"measurement": "The level of expressed mRNA in the presence of chemical substance/The level of expressed mRNA in the absence of chemical substance", "setting": "yeast gene YGR258C", "result": 1.2}, {"measurement": "The level of expressed mRNA in the presence of chemical substance/The level of expressed mRNA in the absence of chemical substance", "setting": "yeast gene YHR164C", "result": 1.3}, {"measurement": "The level of expressed mRNA in the presence of chemical substance/The level of expressed mRNA in the absence of chemical substance", "setting": "yeast gene YIL036W", "result": 1.1}, {"measurement": "The level of expressed mRNA in the presence of chemical substance/The level of expressed mRNA in the absence of chemical substance", "setting": "yeast gene YIL072W", "result": 2.0}, {"measurement": "The level of expressed mRNA in the presence of chemical substance/The level of expressed mRNA in the absence of chemical substance", "setting": "yeast gene YIL143C", "result": 1.0}, {"measurement": "The level of expressed mRNA in the presence of chemical substance/The level of expressed mRNA in the absence of chemical substance", "setting": "yeast gene YIL153W", "result": 1.0}, {"measurement": "The level of expressed mRNA in the presence of chemical substance/The level of expressed mRNA in the absence of chemical substance", "setting": "yeast gene YIR002C", "result": 1.1}, {"measurement": "The level of expressed mRNA in the presence of chemical substance/The level of expressed mRNA in the absence of chemical substance", "setting": "yeast gene YJL026W", "result": 1.0}, {"measurement": "The level of expressed mRNA in the presence of chemical substance/The level of expressed mRNA in the absence of chemical substance", "setting": "yeast gene YJR046W", "result": 1.0}, {"measurement": "The level of expressed mRNA in the presence of chemical substance/The level of expressed mRNA in the absence of chemical substance", "setting": "yeast gene YJR052W", "result": 1.4}, {"measurement": "The level of expressed mRNA in the presence of chemical substance/The level of expressed mRNA in the absence of chemical substance", "setting": "yeast gene YKL145W", "result": 1.0}, {"measurement": "The level of expressed mRNA in the presence of chemical substance/The level of expressed mRNA in the absence of chemical substance", "setting": "yeast gene YLR103C", "result": 1.0}, {"measurement": "The level of expressed mRNA in the presence of chemical substance/The level of expressed mRNA in the absence of chemical substance", "setting": "yeast gene YLR233C", "result": 1.1}, {"measurement": "The level of expressed mRNA in the presence of chemical substance/The level of expressed mRNA in the absence of chemical substance", "setting": "yeast gene YLR288C", "result": 1.2}, {"measurement": "The level of expressed mRNA in the presence of chemical substance/The level of expressed mRNA in the absence of chemical substance", "setting": "yeast gene YML032C", "result": 1.0}, {"measurement": "The level of expressed mRNA in the presence of chemical substance/The level of expressed mRNA in the absence of chemical substance", "setting": "yeast gene YML058W", "result": 1.1}, {"measurement": "The level of expressed mRNA in the presence of chemical substance/The level of expressed mRNA in the absence of chemical substance", "setting": "yeast gene YMR035W", "result": 1.3}, {"measurement": "The level of expressed mRNA in the presence of chemical substance/The level of expressed mRNA in the absence of chemical substance", "setting": "yeast gene YMR072W", "result": 1.2}, {"measurement": "The level of expressed mRNA in the presence of chemical substance/The level of expressed mRNA in the absence of chemical substance", "setting": "yeast gene YMR096W", "result": 4.7}, {"measurement": "The level of expressed mRNA in the presence of chemical substance/The level of expressed mRNA in the absence of chemical substance", "setting": "yeast gene YMR284W", "result": 1.2}, {"measurement": "The level of expressed mRNA in the presence of chemical substance/The level of expressed mRNA in the absence of chemical substance", "setting": "yeast gene YNL213C", "result": 1.8}, {"measurement": "The level of expressed mRNA in the presence of chemical substance/The level of expressed mRNA in the absence of chemical substance", "setting": "yeast gene YNL250W", "result": 1.6}, {"measurement": "The level of expressed mRNA in the presence of chemical substance/The level of expressed mRNA in the absence of chemical substance", "setting": "yeast gene YNL261W", "result": 1.4}, {"measurement": "The level of expressed mRNA in the presence of chemical substance/The level of expressed mRNA in the absence of chemical substance", "setting": "yeast gene YNL312W", "result": 1.1}, {"measurement": "The level of expressed mRNA in the presence of chemical substance/The level of expressed mRNA in the absence of chemical substance", "setting": "yeast gene YOL043C", "result": 1.5}, {"measurement": "The level of expressed mRNA in the presence of chemical substance/The level of expressed mRNA in the absence of chemical substance", "setting": "yeast gene YOR005C", "result": 1.2}, {"measurement": "The level of expressed mRNA in the presence of chemical substance/The level of expressed mRNA in the absence of chemical substance", "setting": "yeast gene YOR386W", "result": 0.9}, {"measurement": "The level of expressed mRNA in the presence of chemical substance/The level of expressed mRNA in the absence of chemical substance", "setting": "yeast gene YPL022W", "result": 0.9}, {"measurement": "The level of expressed mRNA in the presence of chemical substance/The level of expressed mRNA in the absence of chemical substance", "setting": "yeast gene YPL164C", "result": 0.9}, {"measurement": "The level of expressed mRNA in the presence of chemical substance/The level of expressed mRNA in the absence of chemical substance", "setting": "yeast gene YPL194W", "result": 1.1}, {"measurement": "The level of expressed mRNA in the presence of chemical substance/The level of expressed mRNA in the absence of chemical substance", "setting": "yeast gene YPR025C", "result": 1.3}]}]}
